Patent US20020137929A1, “1 - (3-heterocyclylphenyl) isothiourea, -isourea, -guanidine and -amidine herbicidal agents” (Intellectual Property Department, BASF Aktiengesellschaft, priority 1998, published 2002)

Experiments:
ABUTH (Velvetleaf) = experiment: Postemergence herbicidal evaluation; format: in vivo, Abutilon theophrasti
Procedure, shortened: (§1)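 Each compound, dispersed in an acetone/water mix (50/50) carrying 0.5% TWEEN 20, is nozzle-sprayed at 40 psi on approximately two-week-old seedlings at about 0.0156–0.500 kg/ha. Plants are assessed 4–5 weeks afterward on a 0–9 scale relative to control; duplicate tests are averaged.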

AMBEL (Ragweed, Common) = experiment: Postemergence herbicidal evaluation; format: in vivo, Ambrosia artemisifolia
Procedure: (§2) In the tests, seedling plants are grown in jiffy flats for about two weeks. The test compounds are dispersed in 50/50 acetone/water mixtures containing 0.5% TWEEN®20, a polyoxyethylene sorbitan monolaurate surfactant of Atlas Chemical Industries, in sufficient quantities to provide the equivalent of about 0.0156 kg to 0.500 kg per hectare of active compound when applied to the plants through a spray nozzle operating at 40 psi for a predetermined time. After spraying, the plants are placed on greenhouse benches and are cared for in accordance with conventional greenhouse procedures. From four to five weeks after treatment, the seedling plants are examined and rated according to the rating system set forth below. Where more than one test is involved for a given compound, the data are averaged.
(§3) Plant species employed in these evaluations are reported by header abbreviation, common name and scientific name.
(§4) Results of herbicide evaluation are expressed on a rating scale (0-9). The scale is based upon a visual observation of plant stand, vigor, malformation, size, chlorosis and overall plant appearance as compared with a control.

CASOB (Sicklepod) = experiment: Postemergence herbicidal evaluation; format: in vivo, Cassia obtusifolia
Procedure, shortened: as §1

[1] = system: CHEAL (Lambsquarters, Common); experiment: Postemergence herbicidal evaluation; format: in vivo, Chenopodium album
Procedure: as §2, §3, §4

GALAP (Galium) = experiment: Postemergence herbicidal evaluation; format: in vivo, Galium aparine
Procedure, shortened: as §1

[2] = system: IPOHE (Morningglory, Ivyleaf); experiment: Postemergence herbicidal evaluation; format: in vivo, Ipomoea hederacea
Procedure, shortened: as §1

ECHCG (Barnyardgrass) = experiment: Postemergence herbicidal evaluation; format: in vivo, Echinochloa crus-galli
Procedure: as §2, §3, §4

SETVI (Foxtail, Green) = experiment: Postemergence herbicidal evaluation; format: in vivo, Setaria viridis
Procedure: as §2, §3, §4

[3] = system: GLXMAW (Soybean, Williams); experiment: Postemergence herbicidal evaluation; format: in vivo, Glycine max, (L.) Merr. cv Williams
Procedure, shortened: as §1

ORYSAT (Rice, Tebonnet) = experiment: Postemergence herbicidal evaluation; format: in vivo, Oryza sativa, (L.) Tebonnet
Procedure: as §2, §3, §4

[4] = system: TRZAWR (Wheat, Winter, cv Riband); experiment: Postemergence herbicidal evaluation; format: in vivo, Triticum aestivum
Procedure: as §2, §3, §4

ZEAMX (Corn, Field) = experiment: Postemergence herbicidal evaluation; format: in vivo, Zea mays
Procedure, shortened: as §1

[5] = system: ECHORC (Watergrass (Calif.)); experiment: Preemergence weed control under flooded paddy conditions; format: in vivo, Echinochloa oryzoides; conditions: rated 3-4 weeks after treatment
Procedure: as §4
(§5) Preemergence herbicidal activity under flooded paddy conditions is determined as follows: plant seeds or propagating organs are planted in the top 0.5 cm of silt loam soil in 32 oz. plastic containers with a diameter of 10.5 cm and no drainage holes. Water is added to these containers and maintained at 1.5 to 3 cm above the soil surface for the duration of the experiment. The test compounds are applied as aqueous/acetone mixtures 50/50 v/v pipetted directly into the flood water to give the equivalent of about 0.0313 to 0.500 kg/ha of active ingredient. The treated containers are placed on greenhouse benches and cared for in accordance with conventional greenhouse procedures. Three to four weeks after treatment, the test is terminated and each container is examined and herbicidal effect rated according to the rating system provided in Example 37. The compounds evaluated are reported by compound number given in Example 37.
(§6) Plant species employed in this example are reported by header abbreviation, common name and scientific name.

CYPIR (Rice Flatsedge) [6] = experiment: as above; format: in vivo, Cyperus iria; conditions: rated 3-4 weeks after treatment
Procedure: as §4, §5, §6

CYPSE (Flatsedge) [7] = experiment: as above; format: in vivo, Cyperus serotinus; conditions: rated 3-4 weeks after treatment
Procedure: as §4, §5, §6

MOOVA (Monochoria) [8] = experiment: as above; format: in vivo, Monochoria vaginalis; conditions: rated 3-4 weeks after treatment
Procedure: as §4, §5, §6

[9] = system: SAGPY (Arrowhead (Pygmaea)); experiment: as above; format: in vivo, Sagittaria pygmaea; conditions: rated 3-4 weeks after treatment
Procedure: as §4, §5, §6

[10] = system: ECHORC (Watergrass (Calif.)); experiment: Postemergence weed control under flooded paddy conditions; format: in vivo, Echinochloa oryzoides; conditions: postemergence weeds, 3-4 weeks after treatment
Source text: as §4
(§7) Plastic containers containing weeds which are 3 to 5 cm tall and rice seedlings at the 1.5 to 2.5 leaf stage are flooded with water. The water is maintained at 1.5 to 3 cm above the soil surface for the duration of the experiment. Test compounds are applied as aqueous/ acetone mixtures 50/50 v/v directly into the flood water to provide the equivalent of about 0.0313 to 0.500 kg/ha of active ingredient. The treated containers are placed on greenhouse benches and cared for in accordance with conventional greenhouse procedures. Three to four weeks after treatment, the test is terminated and each container is examined and herbicidal effect rated according to the rating system provided in Example 37. The compounds evaluated are reported by compound number given in Example 37.

CYPIR (Rice Flatsedge) [11] = experiment: as above; format: in vivo, Cyperus iria; conditions: postemergence weeds, 3-4 weeks after treatment
Source text: as §4, §7

CYPSE (Flatsedge) [12] = experiment: as above; format: in vivo, Cyperus serotinus; conditions: postemergence weeds, 3-4 weeks after treatment
Source text: as §4, §7

MOOVA (Monochoria) [13] = experiment: as above; format: in vivo, Monochoria vaginalis; conditions: postemergence weeds, 3-4 weeks after treatment
Source text: as §4, §7

[14] = system: SAGPY (Arrowhead (Pygmaea)); experiment: as above; format: in vivo, Sagittaria pygmaea; conditions: postemergence weeds, 3-4 weeks after treatment
Source text: as §4, §7

SMILES: CCOC(=O)CN1C(=O)C(CC(=O)NC)SC1=Nc1cc(-n2c(=O)cc(C(F)(F)F)n(C)c2=O)c(F)cc1Cl (stereo not shown) [Compound 57, Ethyl 2-{{2-chloro-5-[3,6-dihydro-3-methyl-2,6-dioxo-4-(trifluoromethyl)-1(2H)-pyrimidinyl]-4-fluorophenyl}imino}-5-[(methylcarbamoyl)methyl]-4-oxo-3-thiazolidineacetate]
- Postemergence herbicidal rating ABUTH (ABUTH (Velvetleaf); Rate 0.0158 kg/ha): 9.0
- Postemergence herbicidal rating ABUTH (ABUTH (Velvetleaf); Rate 0.0315 kg/ha): 9.0
- Postemergence herbicidal rating ABUTH (ABUTH (Velvetleaf); Rate 0.0630 kg/ha): 9.0
- Postemergence herbicidal rating AMBEL (AMBEL (Ragweed, Common); Rate 0.0158 kg/ha): 9.0
- Postemergence herbicidal rating AMBEL (AMBEL (Ragweed, Common); Rate 0.0315 kg/ha): 9.0
- Postemergence herbicidal rating AMBEL (AMBEL (Ragweed, Common); Rate 0.0630 kg/ha): 9.0
- Postemergence herbicidal rating CASOB (CASOB (Sicklepod); Rate 0.0158 kg/ha): 2.0
- Postemergence herbicidal rating CASOB (CASOB (Sicklepod); Rate 0.0315 kg/ha): 2.0
- Postemergence herbicidal rating CASOB (CASOB (Sicklepod); Rate 0.0630 kg/ha): 6.0
- Postemergence herbicidal rating CHEAL ([1]; Rate 0.0158 kg/ha): 9.0
- Postemergence herbicidal rating CHEAL ([1]; Rate 0.0315 kg/ha): 9.0
- Postemergence herbicidal rating CHEAL ([1]; Rate 0.0630 kg/ha): 9.0
- Postemergence herbicidal rating GALAP (GALAP (Galium); Rate 0.0158 kg/ha): 4.0
- Postemergence herbicidal rating GALAP (GALAP (Galium); Rate 0.0315 kg/ha): 6.0
- Postemergence herbicidal rating GALAP (GALAP (Galium); Rate 0.0630 kg/ha): 5.0
- Postemergence herbicidal rating IPOHE ([2]; Rate 0.0158 kg/ha): 9.0
- Postemergence herbicidal rating IPOHE ([2]; Rate 0.0315 kg/ha): 9.0
- Postemergence herbicidal rating IPOHE ([2]; Rate 0.0630 kg/ha): 9.0
- Postemergence herbicidal rating ECHCG (ECHCG (Barnyardgrass); Rate 0.0158 kg/ha): 1.0
- Postemergence herbicidal rating ECHCG (ECHCG (Barnyardgrass); Rate 0.0315 kg/ha): 1.0
- Postemergence herbicidal rating ECHCG (ECHCG (Barnyardgrass); Rate 0.0630 kg/ha): 1.0
- Postemergence herbicidal rating SETVI (SETVI (Foxtail, Green); Rate 0.0158 kg/ha): 2.0
- Postemergence herbicidal rating SETVI (SETVI (Foxtail, Green); Rate 0.0315 kg/ha): 4.0
- Postemergence herbicidal rating SETVI (SETVI (Foxtail, Green); Rate 0.0630 kg/ha): 5.0
- Postemergence herbicidal rating GLXMAW ([3]; Rate 0.0158 kg/ha): 6.5
- Postemergence herbicidal rating GLXMAW ([3]; Rate 0.0315 kg/ha): 6.5
- Postemergence herbicidal rating GLXMAW ([3]; Rate 0.0630 kg/ha): 9.0
- Postemergence herbicidal rating ORYSAT (ORYSAT (Rice, Tebonnet); Rate 0.0158 kg/ha): 1.5
- Postemergence herbicidal rating ORYSAT (ORYSAT (Rice, Tebonnet); Rate 0.0315 kg/ha): 2.5
- Postemergence herbicidal rating ORYSAT (ORYSAT (Rice, Tebonnet); Rate 0.0630 kg/ha): 3.0
- Postemergence herbicidal rating TRZAWR ([4]; Rate 0.0158 kg/ha): 3.0
- Postemergence herbicidal rating TRZAWR ([4]; Rate 0.0315 kg/ha): 4.0
- Postemergence herbicidal rating TRZAWR ([4]; Rate 0.0630 kg/ha): 4.0
- Postemergence herbicidal rating ZEAMX (ZEAMX (Corn, Field); Rate 0.0158 kg/ha): 4.5
- Postemergence herbicidal rating ZEAMX (ZEAMX (Corn, Field); Rate 0.0315 kg/ha): 5.0
- Postemergence herbicidal rating ZEAMX (ZEAMX (Corn, Field); Rate 0.0630 kg/ha): 5.0
- Herbicidal rating ECHORC ([5]; 0.0313 kg/ha): 0.0
- Herbicidal rating ECHORC ([5]; 0.0625 kg/ha): 2.0
- Herbicidal rating ECHORC ([5]; 0.1250 kg/ha): 2.0
- Herbicidal rating ECHORC ([5]; 0.2500 kg/ha): 5.0
- Herbicidal rating CYPIR (CYPIR (Rice Flatsedge) [6]; 0.0313 kg/ha): 0.0
- Herbicidal rating CYPIR (CYPIR (Rice Flatsedge) [6]; 0.0625 kg/ha): 9.0
- Herbicidal rating CYPIR (CYPIR (Rice Flatsedge) [6]; 0.1250 kg/ha): 9.0
- Herbicidal rating CYPIR (CYPIR (Rice Flatsedge) [6]; 0.2500 kg/ha): 9.0
- Herbicidal rating CYPSE (CYPSE (Flatsedge) [7]; 0.0313 kg/ha): 0.0
- Herbicidal rating CYPSE (CYPSE (Flatsedge) [7]; 0.0625 kg/ha): 0.0
- Herbicidal rating CYPSE (CYPSE (Flatsedge) [7]; 0.1250 kg/ha): 0.0
- Herbicidal rating CYPSE (CYPSE (Flatsedge) [7]; 0.2500 kg/ha): 3.0
- Herbicidal rating MOOVA (MOOVA (Monochoria) [8]; 0.0313 kg/ha): 9.0
- Herbicidal rating MOOVA (MOOVA (Monochoria) [8]; 0.0625 kg/ha): 9.0
- Herbicidal rating MOOVA (MOOVA (Monochoria) [8]; 0.1250 kg/ha): 9.0
- Herbicidal rating MOOVA (MOOVA (Monochoria) [8]; 0.2500 kg/ha): 9.0
- Herbicidal rating SAGPY ([9]; 0.0313 kg/ha): 0.0
- Herbicidal rating SAGPY ([9]; 0.0625 kg/ha): 0.0
- Herbicidal rating SAGPY ([9]; 0.1250 kg/ha): 0.0
- Herbicidal rating SAGPY ([9]; 0.2500 kg/ha): 6.0
- Herbicidal rating ECHORC ([10]; rate 0.0313 kg/ha): 0.0
- Herbicidal rating ECHORC ([10]; rate 0.0625 kg/ha): 2.0
- Herbicidal rating ECHORC ([10]; rate 0.1250 kg/ha): 2.0
- Herbicidal rating ECHORC ([10]; rate 0.2500 kg/ha): 5.0
- Herbicidal rating CYPIR (CYPIR (Rice Flatsedge) [11]; rate 0.0313 kg/ha): 0.0
- Herbicidal rating CYPIR (CYPIR (Rice Flatsedge) [11]; rate 0.0625 kg/ha): 9.0
- Herbicidal rating CYPIR (CYPIR (Rice Flatsedge) [11]; rate 0.1250 kg/ha): 9.0
- Herbicidal rating CYPIR (CYPIR (Rice Flatsedge) [11]; rate 0.2500 kg/ha): 9.0
- Herbicidal rating CYPSE (CYPSE (Flatsedge) [12]; rate 0.0313 kg/ha): 0.0
- Herbicidal rating CYPSE (CYPSE (Flatsedge) [12]; rate 0.0625 kg/ha): 0.0
- Herbicidal rating CYPSE (CYPSE (Flatsedge) [12]; rate 0.1250 kg/ha): 0.0
- Herbicidal rating CYPSE (CYPSE (Flatsedge) [12]; rate 0.2500 kg/ha): 3.0
- Herbicidal rating MOOVA (MOOVA (Monochoria) [13]; rate 0.0313 kg/ha): 9.0
- Herbicidal rating MOOVA (MOOVA (Monochoria) [13]; rate 0.0625 kg/ha): 9.0
- Herbicidal rating MOOVA (MOOVA (Monochoria) [13]; rate 0.1250 kg/ha): 9.0
- Herbicidal rating MOOVA (MOOVA (Monochoria) [13]; rate 0.2500 kg/ha): 9.0
- Herbicidal rating SAGPY ([14]; rate 0.0313 kg/ha): 0.0
- Herbicidal rating SAGPY ([14]; rate 0.0625 kg/ha): 0.0
- Herbicidal rating SAGPY ([14]; rate 0.1250 kg/ha): 0.0
- Herbicidal rating SAGPY ([14]; rate 0.2500 kg/ha): 6.0
